# Laboratory results: patent US9499811B2, “Ligation enhancement” (New England Biolabs, Inc., priority 2011, dated 2016)
# Assays:
# T4 DNA ligase [1] = target: T1, T4 DNA ligase (Enterobacteria phage T4, UniProt P00970); assay: Cloning of inserts with single-base 3'A overhangs into Qiagen cloning vector, ligation and subsequent transformation; format: biochemical; design: purchased NEB (New England Biolabs), Ipswich, Mass. #M0202; conditions: 6% 1,2-PrD
# T1 sequence (P00970 1-487): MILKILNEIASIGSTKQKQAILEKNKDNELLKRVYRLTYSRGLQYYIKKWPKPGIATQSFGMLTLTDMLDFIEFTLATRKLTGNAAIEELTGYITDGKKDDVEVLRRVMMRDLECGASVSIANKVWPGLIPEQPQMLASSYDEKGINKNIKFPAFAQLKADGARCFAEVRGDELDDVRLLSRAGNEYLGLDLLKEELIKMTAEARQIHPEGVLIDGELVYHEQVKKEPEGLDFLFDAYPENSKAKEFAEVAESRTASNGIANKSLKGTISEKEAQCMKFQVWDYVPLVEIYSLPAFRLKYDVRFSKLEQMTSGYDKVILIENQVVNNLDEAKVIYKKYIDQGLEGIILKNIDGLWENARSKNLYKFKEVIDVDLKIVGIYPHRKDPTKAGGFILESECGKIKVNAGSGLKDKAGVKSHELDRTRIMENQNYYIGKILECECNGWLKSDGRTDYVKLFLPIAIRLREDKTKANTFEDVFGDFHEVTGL
# Procedure: This test used a commercially available cloning vector from Qiagen, Valencia, Calif. (#231124) specifically designed to clone DNA fragments with single-base 3′A overhangs.
# The reaction mixtures contained DNA at 50-100 ng and 1,2-PrD at different concentrations. 1 μl of regular concentration (NEB, Ipswich, Mass., #M0202; 400 units) or 1 μl of high concentration T4 DNA ligase (NEB, Ipswich, Mass., #M0202; 2000 units) was then added to a final volume of 21 μl in 1×T4 DNA Ligase Buffer (NEB, Ipwich, Mass., #B0202) or 1× Quick Ligase™ Buffer (NEB, Ipswich, Mass., #B2200).
# Ligation reactions were incubated for 10 min at room temperature (25° C.) unless otherwise stated, then placed on ice for 2 min. In some experiments the ligase was heat-killed by incubation at 65° C. for 20 min. The ligation reactions were analyzed by 1% agarose gel electrophoresis to identify DNA species and determine the efficiency of […].
# A volume of 2 μl from each ligation reaction was incubated with 50 μl of chemically competent (NEB, Ipswich, Mass., #C2987I) or electrocompetent (NEB, Ipswich, Mass., #C2989K) DH5 alpha E. coli cells.
# (§1) For chemically competent cell transformations, the cell-DNA mixture was incubated on ice for 30 min, heat-shocked at 42° C. for 30 sec, then returned to ice for 5 min. A volume of 950 μl SOC medium (2% vegetable peptone or Tryptone, 0.5% yeast extract, 10 mM NaCl, 2.5 mM KCl, 10 mM MgCl2, 10 mM MgSO4 and 20 mM glucose) was added to the cell-DNA mixture, followed by a one hr 37° C. outgrowth period with agitation. A volume of 25-50 μl of appropriately diluted cells in SOC was spread onto Rich Agar plates (composition per liter: 10 g soy peptone, 5 g yeast extract, 10 g NaCl, 1 g MgCl2-6H2O, 1 g dextrose, 15 grams agar) supplemented with 100 μg/ml ampicillin. Plates were inverted and incubated for 16 hrs at 37° C., followed by quantification of total colony numbers.
# For electrocompetent cell transformation protocols, the cell-DNA mixture was subjected to electroporation, immediately followed by the addition of 950 μl of pre-warmed 37° C. SOC medium, followed by a one hour 37° C. outgrowth period with agitation. Dilution, plating, incubation and colony quantification were performed as described in Example 1A above.
# T4 DNA ligase [2] = target: T1, T4 DNA ligase; assay: Ligation of one, two or three pUC19 fragments with single-base overhangs, transformation and gel analysis; format: biochemical; design: purchased NEB (New England Biolabs), Ipswich, Mass. #M0202; conditions: for Ligation/Subsequent Transformation Enhancement: 12% 1,2-PrD vs none; for Transformation Efficiency +1,2-PrD / Resultant Colonies +1,2-PrD: 12% 1,2-PrD; for Resultant Colonies +1,2-PrD: 20 pg DNA plated
# Procedure: FIGS. 4A-C show agarose gel electrophoresis analysis of ligation products achieved using +/−12% 1,2-PrD for one, two and three pUC19 fragment sets as described in FIGS. 3A-C. The marker lane indicated by M corresponds to 1 μg of a 2-log DNA ladder, New England Biolabs, Inc. (NEB), Ipswich, Mass., #3200. (1) is a 2686-bp linear AhdI-pUC19 fragment; (2) are 1527-bp and 1159-bp BciVI fragments; (3) are 2 lengths (2275-bp and 287-bp) of 3 BccI fragments where the third 124-bp fragment is not visible on the gel; (4) is a linearized intermediate ligation product formed by 2275-bp and 287-bp BccI fragments; (5) is the desired ligated/circularized plasmid which is a highly transformable desired product; and (6) are different kinds of linear and circular undesired concatameric ligation products which are not highly transformable.
# as §1
# Single fragment ligation (recircularization), two fragment ligation (cloning) and three fragment ligation (assembly) reactions were performed in the presence of 1,2-PrD (see FIGS. 3A-C). Restriction digests of pUC19 plasmid constructs were performed to completion by monitoring the reactions using 1% agarose gel electrophoresis. Upon completion all restriction enzymes were heat-inactivated by incubating the reaction for 20 min at 65° C. The DNA was purified by use of QiaQuick® (Qiagen, Valencia, Calif.) spin columns and quantified by comparison to known DNA standards by 1% agarose gel electrophoresis. […] Ligation reactions were performed as described in FIGS. 3A-C using 100 ng of DNA that had been restricted by AhdI, BciVI or BccI to leave a variety of single-base overhangs. From each 21 μl ligation reaction, 2 μl was used for transformation as analyzed in Table 4 and 19 μl was run on a 1% agarose gel prepared with tris-borate as described in FIGS. 4A-C. […] This is the highly transformable DNA circularized form.
# The ligations took place with and without 12% 1,2-PrD present for 10 min at room temperature (25° C.) with 2000 units T4 DNA ligase. A volume of 2 μl from each ligation reaction was transformed into chemically competent DH5 alpha cells as described in Example 1. A volume of 40 μl of a 1:20 dilution of the outgrowth in SOC medium was plated on medium Rich Agar plates supplemented with ampicillin. This volume corresponded to 20 pg of DNA from the original ligation reaction.
# [3] = insert 68mer cassette featuring No 5' PO4, 3' A overhang
# [4] = insert 513 pb human genomic amplicon using Taq DNA polymerase
# [5] = 1 fragment (AhdI-linearized pUC19)
smiles,measurement,setting,value
"CC(O)CO (stereo not drawn) [1,2-PrD, 1,2-propanediol]",Cloning Enhancement (chemical transformation),T4 DNA ligase [1]; [3],14-fold
same,Cloning Enhancement (electroporation),T4 DNA ligase [1]; [3],2-fold
same,Cloning Enhancement (chemical transformation),T4 DNA ligase [1]; [4],At least 72-fold
same,Cloning Enhancement (electroporation),T4 DNA ligase [1]; [4],11-fold
same,Colonies (chemical transformation),"T4 DNA ligase [1]; insert 513 pb human genomic amplicon, 0 colonies without enhancer",72 colonies)
same,Ligation/Subsequent Transformation Enhancement,T4 DNA ligase [2]; [5],12-fold
same,Ligation/Subsequent Transformation Enhancement,T4 DNA ligase [2]; 2 fragments (BciVI-pUC19),At least 35-fold
same,Ligation/Subsequent Transformation Enhancement,T4 DNA ligase [2]; 3 fragments (BccI-pUC19),18-fold
same,"Transformation Efficiency +1,2-PrD",T4 DNA ligase [2]; [5],51.4 × 10e^6/μg DNA
same,"Resultant Colonies +1,2-PrD","T4 DNA ligase [2]; 1 fragment (AhdI-linearized pUC19), 2000 units T4 DNA ligase, 10 min 25 C",1027
same,"Transformation Efficiency +1,2-PrD",T4 DNA ligase [2]; 2 fragments (BciVI-pUC19),1.8 × 10e^6/μg DNA
same,"Resultant Colonies +1,2-PrD",T4 DNA ligase [2]; 2 fragments (BciVI-pUC19),35
same,"Transformation Efficiency +1,2-PrD",T4 DNA ligase [2]; 3 fragments (BccI-pUC19),1.85 × 10e^6/μg DNA
same,"Resultant Colonies +1,2-PrD",T4 DNA ligase [2]; 3 fragments (BccI-pUC19),37
same,Amount of ligated circularized plasmid on agarose gel,"T4 DNA ligase [2]; +/-12% 1,2-PrD, one, two and three pUC19 fragment sets (FIGS. 4A-C)",significant beneficial effect on the amount of ligated circularized plasmid
